Molecular target: T1, human Nav1.8 channels (Homo sapiens, UniProt Q9Y5Y9)
T1 construct: expressed in transfected cells
Test: Nav1.8 Qube automated patch-clamp assay
Format: cell-based
Settings: human Nav1.8 stably expressed in HEK 293 cells; whole-cell voltage clamp, room temperature; resting or inactivated state not specified; read-out: IC50 values (nM) for Examples in the Nav1.8 Qube Assay
How it was run: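 Whole-cell patch clamp at room temperature on HEK293 cells stably expressing human Nav1.8. A 1 Hz train of ten 20 ms pulses to 10 mV from −90 mV holding, with −67 mV repolarization, was applied; first- and tenth-pulse peak currents gave resting and inactivated-state IC50s by Hill fitting.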

T1 sequence (Q9Y5Y9 whole entry): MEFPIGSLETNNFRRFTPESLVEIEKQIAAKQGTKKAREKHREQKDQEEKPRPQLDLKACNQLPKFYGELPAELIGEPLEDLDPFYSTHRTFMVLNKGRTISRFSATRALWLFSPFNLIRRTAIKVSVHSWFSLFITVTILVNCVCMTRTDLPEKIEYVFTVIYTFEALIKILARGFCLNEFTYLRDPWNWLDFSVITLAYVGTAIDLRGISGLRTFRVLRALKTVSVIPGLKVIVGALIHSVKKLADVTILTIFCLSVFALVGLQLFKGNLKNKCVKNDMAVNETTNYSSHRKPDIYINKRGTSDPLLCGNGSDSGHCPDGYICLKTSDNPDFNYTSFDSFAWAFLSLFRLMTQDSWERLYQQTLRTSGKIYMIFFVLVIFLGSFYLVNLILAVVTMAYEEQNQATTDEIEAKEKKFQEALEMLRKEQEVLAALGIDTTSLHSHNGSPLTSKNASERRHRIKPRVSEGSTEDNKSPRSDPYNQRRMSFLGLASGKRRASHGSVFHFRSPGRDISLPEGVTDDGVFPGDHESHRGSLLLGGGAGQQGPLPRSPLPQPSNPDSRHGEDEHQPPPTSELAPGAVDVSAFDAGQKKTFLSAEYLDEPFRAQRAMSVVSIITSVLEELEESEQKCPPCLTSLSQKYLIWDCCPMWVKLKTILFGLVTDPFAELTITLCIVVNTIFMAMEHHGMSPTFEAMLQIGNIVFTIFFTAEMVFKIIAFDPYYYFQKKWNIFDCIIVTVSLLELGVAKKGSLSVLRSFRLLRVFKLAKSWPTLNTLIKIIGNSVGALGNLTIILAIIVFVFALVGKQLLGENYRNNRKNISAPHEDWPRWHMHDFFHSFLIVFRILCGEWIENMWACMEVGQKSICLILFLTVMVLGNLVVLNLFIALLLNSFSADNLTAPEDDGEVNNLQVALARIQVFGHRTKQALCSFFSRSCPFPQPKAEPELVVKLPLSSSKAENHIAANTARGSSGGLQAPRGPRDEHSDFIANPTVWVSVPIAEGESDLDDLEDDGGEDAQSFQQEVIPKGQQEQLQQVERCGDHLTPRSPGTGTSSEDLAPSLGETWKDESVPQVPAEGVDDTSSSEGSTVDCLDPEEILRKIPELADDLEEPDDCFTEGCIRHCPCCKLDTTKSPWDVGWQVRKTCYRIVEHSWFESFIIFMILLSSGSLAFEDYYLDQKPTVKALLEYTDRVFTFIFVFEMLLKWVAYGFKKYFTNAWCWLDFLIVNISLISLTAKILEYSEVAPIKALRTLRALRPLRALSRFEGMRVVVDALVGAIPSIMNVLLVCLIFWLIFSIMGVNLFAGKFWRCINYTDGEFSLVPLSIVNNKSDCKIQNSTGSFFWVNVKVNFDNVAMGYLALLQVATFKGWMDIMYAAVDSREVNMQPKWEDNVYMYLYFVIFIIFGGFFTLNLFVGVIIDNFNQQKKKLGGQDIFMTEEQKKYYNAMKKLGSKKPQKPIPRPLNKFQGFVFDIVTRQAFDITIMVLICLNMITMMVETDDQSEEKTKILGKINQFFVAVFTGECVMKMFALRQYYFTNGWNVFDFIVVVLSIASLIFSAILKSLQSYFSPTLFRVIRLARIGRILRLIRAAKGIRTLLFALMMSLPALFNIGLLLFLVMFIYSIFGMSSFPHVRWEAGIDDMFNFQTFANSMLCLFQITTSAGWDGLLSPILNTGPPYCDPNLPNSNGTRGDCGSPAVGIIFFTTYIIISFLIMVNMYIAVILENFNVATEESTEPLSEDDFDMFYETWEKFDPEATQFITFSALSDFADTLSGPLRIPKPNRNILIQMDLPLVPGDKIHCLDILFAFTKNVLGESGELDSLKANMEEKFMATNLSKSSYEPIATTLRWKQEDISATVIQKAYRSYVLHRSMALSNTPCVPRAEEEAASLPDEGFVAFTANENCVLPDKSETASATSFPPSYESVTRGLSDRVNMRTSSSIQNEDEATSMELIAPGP

SMILES	IC50 [nM]
CS(=O)(=O)n1cc(NC(=O)c2cc(C(F)(F)F)cnc2N2CCCC(F)(F)CC2)c2cccnc21 [Example 30, 2-(4,4-difluoroazepan-1-yl)-N-[1-(methylsulfonyl)-1H-pyrrolo[2,3-b]pyridin-3-yl]-5-(trifluoromethyl)pyridine-3-carboxamide]	4
Cc1nc(N2CCCC(F)(F)CC2)c(C(=O)Nc2cnn(S(C)(=O)=O)c2)cc1Cl [Example 31, 5-chloro-2-(4,4-difluoroazepan-1-yl)-6-methyl-N-[1-(methylsulfonyl)-1H-pyrazol-4-yl]pyridine-3-carboxamide]	4.1
Cc1nc(N2CCCC(F)(F)CC2)c(C(=O)Nc2cnn(S(C)(=O)=O)c2)c(C)c1Cl [Example 32, 5-chloro-2-(4,4-difluoroazepan-1-yl)-4,6-dimethyl-N-[1-(methylsulfonyl)-1H-pyrazol-4-yl]pyridine-3-carboxamide]	4.3
Cc1nc(N2CCCC(F)(F)CC2)c(C(=O)Nc2cnn(S(=O)(=O)CCN)c2)cc1Cl [Example 33, N-{1-[(2-aminoethyl)sulfonyl]-1H-pyrazol-4-yl}-5-chloro-2-(4,4-difluoroazepan-1-yl)-6-methylpyridine-3-carboxamide]	35
CS(=O)(=O)n1nc(NC(=O)c2cc(C(F)(F)F)cnc2N2CCCC(F)(F)CC2)c2ccccc21 [Example 34, 2-(4,4-difluoroazepan-1-yl)-N-[1-(methylsulfonyl)-1H-indazol-3-yl]-5-(trifluoromethyl)pyridine-3-carboxamide]	50
CS(=O)(=O)n1ncc(NC(=O)c2cc(C(F)(F)F)cnc2N2CCCC(F)(F)CC2)c1C1CC1 [Example 37, N-[5-cyclopropyl-1-(methylsulfonyl)-1H-pyrazol-4-yl]-2-(4,4-difluoroazepan-1-yl)-5-(trifluoromethyl)pyridin-3-carboxamide]	1250
NS(=O)(=O)c1cc(NC(=O)c2cnc(C3CC3)nc2N2CCCC(F)(F)CC2)ccn1 [Example 38, 2-cyclopropyl-4-(4,4-difluoroazepan-1-yl)-N-(2-sulfamoylpyridin-4-yl)pyrimidine-5-carboxamide]	24
NS(=O)(=O)c1cc(NC(=O)c2cc(C3CC3)nnc2N2CCCC(F)(F)CC2)ccn1 [Example 39, 6-cyclopropyl-3-(4,4-difluoroazepan-1-yl)-N-(2-sulfamoylpyridin-4-yl)pyridazine-4-carboxamide]	441
Cc1ccc(C(=O)Nc2ccnc(S(N)(=O)=O)c2)c(N2CCCC(F)(F)C(F)C2)n1 (centres unmarked) [Example 40, 6-methyl-N-(2-sulfamoylpyridin-4-yl)-2-(3,4,4-trifluoroazepan-1-yl)nicotinamide]	4.1
COc1nc(N2CCCC(F)(F)CC2)c(C(=O)Nc2ccnc(S(N)(=O)=O)c2)cc1Cl [Example 41, 5-chloro-2-(4,4-difluoroazepan-1-yl)-6-methoxy-N-(2-sulfamoylpyridin-4-yl)pyridine-3-carboxamide]	5.1
COc1nc(N2CCCC(F)(F)CC2)c(C(=O)Nc2ccnc(S(=O)(=O)NC(C)(C)C)c2)cc1Cl [Example 42, N-[2-(tert-butylsulfamoyl)pyridin-4-yl]-5-chloro-2-(4,4-difluoroazepan-1-yl)-6-methoxypyridine-3-carboxamide]	341
N#Cc1cc(C(=O)Nc2ccnc(S(N)(=O)=O)c2)c(N2CCC(F)(F)CC2)nc1C(F)(F)F [Example 43, 5-cyano-2-(4,4-difluoropiperidin-1-yl)-N-(2-sulfamoylpyridin-4-yl)-6-(trifluoromethyl)nicotinamide]	37
NS(=O)(=O)c1cc(NC(=O)c2cc(C#CC3CC3)c(C(F)(F)F)nc2N2CCC(F)(F)CC2)ccn1 [Example 44, 5-(cyclopropylethynyl)-2-(4,4-difluoropiperidin-1-yl)-N-(2-sulfamoylpyridin-4-yl)-6-(trifluoromethyl)nicotinamide]	59
N#Cc1noc(NC(=O)c2cc(C(F)(F)F)cnc2N2CCCCCC2)n1 [Example 45, 2-(azepan-1-yl)-N-(3-cyano-1,2,4-oxadiazol-5-yl)-5-(trifluoromethyl)pyridine-3-carboxamide]	1790
NS(=O)(=O)c1cc(NC(=O)c2cc(C(F)(F)F)cnc2N2C[C@H]3C[C@@H](C2)C3(F)F)ccn1 [Example 76, 2-((1R,5S)-6,6-difluoro-3-azabicyclo[3.1.1]heptan-3-yl)-N-(2-sulfamoylpyridin-4-yl)-5-(trifluoromethyl)nicotinamide]	389

Results, then the compound that gave them:

IC50 [nM]	SMILES
6.6	NS(=O)(=O)c1cc(NC(=O)c2cc(C(F)(F)F)cnc2N2CCCC(Cl)(Cl)CC2)ccn1 [Example 51, 2-(4,4-Dichloroazepan-1-yl)-N-(2-sulfamoylpyridin-4-yl)-5-(trifluoromethyl)nicotinamide]
2.8	C[C@@H]1CN(c2ncc(C(F)(F)F)cc2C(=O)Nc2ccnc(S(N)(=O)=O)c2)C[C@H](C)C1(F)F [Example 52, 2-[(3S,5R)-4,4-difluoro-3,5-dimethyl-1-piperidyl]-N-(2-sulfamoyl-4-pyridyl)-5-(trifluoromethyl)pyridin-3-carboxamide]
14	NS(=O)(=O)c1cc(NC(=O)c2cc(C(F)(F)F)cnc2N2C[C@@H]3[C@H](C2)C(F)(F)C3(F)F)ccn1 [Example 60, N-(2-sulfamoylpyridin-4-yl)-2-((1R,5S)-6,6,7,7-tetrafluoro-3-azabicyclo[3.2.0]heptan-3-yl)-5-(trifluoromethyl)nicotinamide]
20	NS(=O)(=O)c1cc(NC(=O)c2cc(C(F)(F)F)cnc2N2C[C@H]3CC[C@@H](C2)C3(F)F)ccn1 [Example 63, 2-((1R,5S)-8,8-difluoro-3-azabicyclo[3.2.1]octan-3-yl)-N-(2-sulfamoylpyridin-4-yl)-5-(trifluoromethyl)nicotinamide]
29	NS(=O)(=O)c1cc(NC(=O)c2cc(C(F)(F)F)cnc2N2C[C@H]3CC[C@H]3C2)ccn1 [Example 68, 2-((1R,5S)-3-azabicyclo[3.2.0]heptan-3-yl)-N-(2-sulfamoylpyridin-4-yl)-5-(trifluoromethyl)nicotinamide]
233	C[C@@H]1CN(c2ncc(C(F)(F)F)cc2C(=O)Nc2ccnc(S(N)(=O)=O)c2)C[C@H](C)[C@]1(C)O [Example 75, 2-((3R,4s,5S)-4-hydroxy-3,4,5-trimethylpiperidin-1-yl)-N-(2-sulfamoylpyridin-4-yl)-5-(trifluoromethyl)nicotinamide]
2980	C[C@H]1CN(c2ncc(C(F)(F)F)cc2C(=O)Nc2ccnc(S(N)(=O)=O)c2)CC[C@@H]1O [Example 77, 2-[(3S,4S)-4-hydroxy-3-methyl-1-piperidyl]-N-(2-sulfamoyl-4-pyridyl)-5-(trifluoromethyl)pyridine-3-carboxamide]
5080	CC1CN(c2ncc(C(F)(F)F)cc2C(=O)Nc2ccnc(S(N)(=O)=O)c2)CC(C)C1O [Example 78, 2-[(3S,4r,5R)-4-hydroxy-3,5-dimethyl-1-piperidyl]-N-(2-sulfamoyl-4-pyridyl)-5-(trifluoromethyl)pyridine-3-carboxamide]
21	NS(=O)(=O)c1cc(NC(=O)c2cc(C(F)(F)F)cnc2N2CCc3sccc3C2)ccn1 [Example 79, 2-(6,7-dihydro-4H-thieno[3.2-c]pyridin-5-yl)-N-(2-sulfamoyl-4-pyridyl)-5-(trifluoromethyl)pyridin-3-carboxamide]
31	NS(=O)(=O)c1cc(NC(=O)c2cc(C(F)(F)F)cnc2N2CCCC(C(F)(F)F)C2)ccn1 (centres unmarked) [Example 80, N-(2-sulfamoyl-4-pyridyl)-5-(trifluoromethyl)-2-[3-(trifluoromethyl)-1-piperidyl]pyridine-3-carboxamide]
39	NS(=O)(=O)c1cc(NC(=O)c2cc(C(F)(F)F)cnc2N2CCCC(c3cc(F)cc(F)c3)C2)ccn1 (centres unmarked) [Example 81, 2-[3-(3,5-difluorophenyl)-1-piperidyl]-N-(2-sulfamoyl-4-pyridyl)-5-(trifluoromethyl)pyridine-3-carboxamide]
54	NS(=O)(=O)c1cc(NC(=O)c2cc(C(F)(F)F)cnc2N2CCC(C(F)(F)F)CC2)ccn1 [Example 82, N-(2-sulfamoyl-4-pyridyl)-5-(trifluoromethyl)-2-[4-(trifluoromethyl)-1-piperidyl]pyridine-3-carboxamide]
114	NS(=O)(=O)c1cc(NC(=O)c2cc(C(F)(F)F)cnc2N2CCCC(Cc3ccc(C(F)(F)F)cc3)C2)ccn1 (centres unmarked) [Example 83, N-(2-sulfamoyl-4-pyridyl)-5-(trifluoromethyl)-2-[3-[[4-(trifluoromethyl)phenyl]methyl]-1-piperidyl]pyridine-3-carboxamide]
147	NS(=O)(=O)c1cc(NC(=O)c2cc(C(F)(F)F)cnc2N2CCSCC2)ccn1 [Example 84, N-(2-sulfamoyl-4-pyridyl)-2-thiomorpholino-5-(trifluoromethyl)pyridine-3-carboxamide]
152	NS(=O)(=O)c1cc(NC(=O)c2cc(C(F)(F)F)cnc2N2CCC(c3ccc(C(F)(F)F)cc3)C2)ccn1 (centres unmarked) [Example 85, N-(2-sulfamoyl-4 pyridyl)-5-(trifluoromethyl)-2-[3-[4-(trifluoromethyl)phenyl]pyrrolidin-1-yl]pyridine-3-carboxamide]
172	NS(=O)(=O)c1cc(NC(=O)c2cc(C(F)(F)F)cnc2N2CCn3c(Cc4ccccc4)cnc3C2)ccn1 [Example 86, 2-(3-benzyl-6,8-dihydro-5H-imidazo[1,2-a]pyrazin-7-yl)-N-(2-sulfamoyl-4-pyridyl)-5-(trifluoromethyl)pyridine-3-carboxamide]
223	CC1(C)CN(c2ncc(C(F)(F)F)cc2C(=O)Nc2ccnc(S(N)(=O)=O)c2)CCN1CC(F)(F)F [Example 87, 2-[3,3-dimethyl-4-(2,2,2-trifluoroethyl)piperazin-1-yl]-N-(2-sulfamoyl-4-pyridyl)-5-(trifluoromethyl)pyridine-3-carboxamide]
